Measured values taken from ChEMBL document CHEMBL4433224, “Hybridization of Fluoro-amodiaquine (FAQ) with Pyrimidines: Synthesis and Antimalarial Efficacy of FAQ-Pyrimidines” (ACS Med Chem Lett, 2019).
The source made the active and inactive calls. The rule behind the calls is not given here.

Tests used:
Plasmodium falciparum [1] = assay: microbe, parasite or virus in culture; settings: NF54, 48 h
Description: Antiplasmodial activity against chloroquine-sensitive Plasmodium falciparum NF54 incubated for 48 hrs by parasite lactate dehydrogenase assay

in vitro [2] = settings: hamster, CHO cells versus Plasmodium falciparum NF54
Description: Selectivity index, ratio of IC50 for CHO cells to IC50 for antiplasmodial activity against chloroquine-sensitive Plasmodium falciparum NF54

Plasmodium falciparum [3] = assay: microbe, parasite or virus in culture; settings: Dd2, 48 h
Description: Antiplasmodial activity against chloroquine-resistant Plasmodium falciparum Dd2 incubated for 48 hrs by parasite lactate dehydrogenase assay

in vitro [4] = settings: hamster, CHO cells versus Plasmodium falciparum Dd2
Description: Selectivity index, ratio of IC50 for CHO cells to IC50 for antiplasmodial activity against chloroquine-resistant Plasmodium falciparum Dd2

CHO = assay: Cytotoxicity in CHO cells assessed as reduction in cell viability; format: cell-based; settings: Cricetulus griseus
Plasmodium berghei [5] = assay: Antimalarial activity against Plasmodium berghei infected in mouse assessed as mean survival time at 11.1 mg/kg, po dosed once daily on days 0, 1, and 2 days post infection measured on day 28 post infection (reference value: 13.2 days); format: functional
Plasmodium berghei [6] = assay: Antimalarial activity against Plasmodium berghei infected in mouse assessed as host survival at 33.3 mg/kg, po dosed once daily on days 0, 1, and 2 days post infection measured on day 28 post infection relative to untreated control; format: functional, organism-based
Plasmodium berghei [7] = assay: Antimalarial activity against Plasmodium berghei infected in mouse assessed as suppression in parasitemia at 33.3 mg/kg, po dosed once daily on days 0, 1, and 2 days post infection measured on day 5 post infection relative to untreated control; format: functional
Plasmodium berghei [8] = assay: Antimalarial activity against Plasmodium berghei infected in mouse assessed as suppression in parasitemia at 11.1 mg/kg, po dosed once daily on days 0, 1, and 2 days post infection measured on day 7 post infection relative to untreated control; format: functional
Plasmodium berghei [9] = assay: Antimalarial activity against Plasmodium berghei infected in mouse assessed as suppression in parasitemia at 33.3 mg/kg, po dosed once daily on days 0, 1, and 2 days post infection measured on day 7 post infection relative to untreated control; format: functional
Plasmodium berghei [10] = assay: Antimalarial activity against Plasmodium berghei infected in mouse assessed as parasitemia cure at 33.3 mg/kg, po dosed once daily on days 0, 1, and 2 days post infection measured on day 28 post infection; format: functional, organism-based
[11] = Half life human liver microsomes in the presence of NADPH; format: ADME, Microsome
Plasmodium berghei [12] = assay: Antimalarial activity against Plasmodium berghei infected in mouse assessed as host survival at 11.1 mg/kg, po dosed once daily on days 0, 1, and 2 days post infection measured on day 28 post infection relative to untreated control; format: functional, organism-based
[13] = Intrinsic clearance human liver microsomes in the presence of NADPH; format: ADME, Microsome; settings: read-out: CLH
Plasmodium berghei [14] = assay: Antimalarial activity against Plasmodium berghei infected in mouse assessed as mean survival time at 33.3 mg/kg, po dosed once daily on days 0, 1, and 2 days post infection measured on day 28 post infection (reference value: 13.2 days); format: functional
Plasmodium berghei [15] = assay: Antimalarial activity against Plasmodium berghei infected in mouse assessed as suppression in parasitemia at 11.1 mg/kg, po dosed once daily on days 0, 1, and 2 days post infection measured on day 5 post infection relative to untreated control; format: functional
Plasmodium berghei [16] = assay: Antimalarial activity against Plasmodium berghei infected in mouse assessed as parasitemia cure at 11.1 mg/kg, po dosed once daily on days 0, 1, and 2 days post infection measured on day 28 post infection; format: functional, organism-based
Plasmodium berghei [17] = assay: Antimalarial activity against Plasmodium berghei infected in mouse assessed as mean survival time at 11.1 mg/kg, ip dosed once daily on days 0, 1, and 2 days post infection measured on day 28 post infection (reference value: 13.2 days); format: functional
Plasmodium berghei [18] = assay: Antimalarial activity against Plasmodium berghei infected in mouse assessed as suppression in parasitemia at 33.3 mg/kg, ip dosed once daily on days 0, 1, and 2 days post infection measured on day 5 post infection relative to untreated control; format: functional
Plasmodium falciparum [19] = assay: Potency index, ratio of IC50 for artemisinin to IC50 for test compound for antiplasmodial activity against chloroquine-resistant Plasmodium falciparum Dd2 incubated for 48 hrs by parasite lactate dehydrogenase assay; format: functional
Plasmodium berghei [20] = assay: Antimalarial activity against Plasmodium berghei infected in mouse assessed as host survival at 11.1 mg/kg, ip dosed once daily on days 0, 1, and 2 days post infection measured on day 28 post infection relative to untreated control; format: functional, organism-based
Plasmodium berghei [21] = assay: Antimalarial activity against Plasmodium berghei infected in mouse assessed as parasitemia cure at 33.3 mg/kg, ip dosed once daily on days 0, 1, and 2 days post infection measured on day 28 post infection; format: functional, organism-based
Plasmodium berghei [22] = assay: Antimalarial activity against Plasmodium berghei infected in mouse assessed as parasitemia cure at 11.1 mg/kg, ip dosed once daily on days 0, 1, and 2 days post infection measured on day 28 post infection; format: functional, organism-based
Plasmodium falciparum [23] = assay: Potency index, ratio of IC50 for chloroquine to IC50 for test compound for antiplasmodial activity against chloroquine-resistant Plasmodium falciparum Dd2 incubated for 48 hrs by parasite lactate dehydrogenase assay; format: functional
Plasmodium berghei [24] = assay: Antimalarial activity against Plasmodium berghei infected in mouse assessed as suppression in parasitemia at 33.3 mg/kg, ip dosed once daily on days 0, 1, and 2 days post infection measured on day 7 post infection relative to untreated control; format: functional
Plasmodium berghei [25] = assay: Antimalarial activity against Plasmodium berghei infected in mouse assessed as suppression in parasitemia at 11.1 mg/kg, ip dosed once daily on days 0, 1, and 2 days post infection measured on day 7 post infection relative to untreated control; format: functional
Plasmodium berghei [26] = assay: Antimalarial activity against Plasmodium berghei infected in mouse assessed as host survival at 33.3 mg/kg, ip dosed once daily on days 0, 1, and 2 days post infection measured on day 28 post infection relative to untreated control; format: functional, organism-based
Plasmodium berghei [27] = assay: Antimalarial activity against Plasmodium berghei infected in mouse assessed as suppression in parasitemia at 11.1 mg/kg, ip dosed once daily on days 0, 1, and 2 days post infection measured on day 5 post infection relative to untreated control; format: functional
Plasmodium berghei [28] = assay: Antimalarial activity against Plasmodium berghei infected in mouse assessed as mean survival time at 33.3 mg/kg, ip dosed once daily on days 0, 1, and 2 days post infection measured on day 28 post infection (reference value: 13.2 days); format: functional
Heme [29] = assay: Binding affinity to monomeric heme assessed as mole fraction for 1:1 binding stoichiometry with monomeric heme at pH 7.4 by spectrophotometric titration analysis
Heme [30] = assay: Binding affinity to monomeric heme assessed as decrease in the Soret band at pH 5.6 by spectrophotometric titration analysis
Heme [31] = assay: Binding affinity to monomeric heme assessed as decrease in the Soret band at pH 7.4 by spectrophotometric titration analysis
Heme [32] = assay: Binding affinity to monomeric heme assessed as mole fraction for 1:1 binding stoichiometry with monomeric heme at pH 5.6 by spectrophotometric titration analysis

| Compound | IC50 (Plasmodium falciparum [1]) | selectivity ratio (in vitro [2]) | IC50 (Plasmodium falciparum [3]) | selectivity ratio (in vitro [4]) | IC50 (CHO) | other results |
| --- | --- | --- | --- | --- | --- | --- |
| Cc1cc(NCc2cc(Nc3ccnc4cc(Cl)ccc34)ccc2F)nc(N2CCCC2)n1 | 12.4 nM | 306 | 8.23 nM | 462 | 3800 nM |  |
| Cc1cc(NCc2cc(Nc3ccnc4cc(Cl)ccc34)ccc2F)nc(N2CCCCCC2)n1 | 16.9 nM |  | 27.2 nM |  |  |  |
| Cc1cc(N2CCSCC2)nc(NCc2cc(Nc3ccnc4cc(Cl)ccc34)ccc2F)n1 | 7.47 nM | 362 | 16 nM | 169 | 2710 nM |  |
| Cc1cc(NCc2cc(Nc3ccnc4cc(Cl)ccc34)ccc2F)nc(N2CCOCC2)n1 | 26.7 nM | 544 | 33.3 nM | 437 | 14600 nM |  |
| Cc1cc(N2CCN(c3ccccc3)CC2)nc(NCc2cc(Nc3ccnc4cc(Cl)ccc34)ccc2F)n1 | 69.8 nM | 251 | 62.2 nM | 282 | 17500 nM |  |
| Cc1cc(NCc2cc(Nc3ccnc4cc(Cl)ccc34)ccc2F)nc(N2CCN(c3ccccc3)CC2)n1 | 17.7 nM | 981 | 31.3 nM | 555 | 17400 nM |  |
| Cc1cc(NCc2cc(Nc3ccnc4cc(Cl)ccc34)ccc2F)nc(N2CCSCC2)n1 | 22.8 nM | 664 | 33.1 nM | 459 | 15200 nM |  |
| CCN1CCN(c2nc(C)cc(NCc3cc(Nc4ccnc5cc(Cl)ccc45)ccc3F)n2)CC1 | 11.2 nM |  | 7.63 nM |  |  |  |
| CCN(CC)Cc1cc(Nc2ccnc3cc(Cl)ccc23)ccc1O [AMODIAQUINE] |  |  |  |  |  | MST (Plasmodium berghei [5]): 28 days; Activity (Plasmodium berghei [6]): Active; Activity (Plasmodium berghei [7]): 100%; Activity (Plasmodium berghei [8]): 100%; Activity (Plasmodium berghei [9]): 100%; Activity (Plasmodium berghei [10]): Active; half-life [11]: 5.4 min; Activity (Plasmodium berghei [12]): Active; microsomal CLint [13]: 431 µL/min/mg; MST (Plasmodium berghei [14]): 28 days; Activity (Plasmodium berghei [15]): 100% |
| Cc1cc(N2CCN(C)CC2)nc(NCc2cc(Nc3ccnc4cc(Cl)ccc34)ccc2F)n1 | 15.3 nM | 3800 | 18.4 nM | 3160 | 58200 nM |  |
| CCN1CCN(c2cc(C)nc(NCc3cc(Nc4ccnc5cc(Cl)ccc45)ccc3F)n2)CC1 | 28.9 nM | 2780 | 23.4 nM | 3430 | 80300 nM |  |
| C[C@H]1[C@H](OC(=O)CCC(=O)O)O[C@@H]2O[C@@]3(C)CC[C@H]4[C@H](C)CC[C@@H]1[C@@]24OO3 [ARTESUNATE] | 10 nM |  | 13 nM |  |  |  |
| Cc1cc(NCc2cc(Nc3ccnc4cc(Cl)ccc34)ccc2F)nc(N2CCCCC2)n1 | 13.8 nM |  | 17.2 nM |  |  |  |
| CCN(CC)CCCC(C)Nc1ccnc2cc(Cl)ccc12 (stereo unspecified) [CHLOROQUINE] |  |  |  |  |  | MST (Plasmodium berghei [5]): 28 days; Activity (Plasmodium berghei [6]): Active; Activity (Plasmodium berghei [7]): 100%; Activity (Plasmodium berghei [16]): inactive; Activity (Plasmodium berghei [8]): 99.2%; Activity (Plasmodium berghei [9]): 100%; Activity (Plasmodium berghei [12]): Active; MST (Plasmodium berghei [14]): 28 days; Activity (Plasmodium berghei [15]): 100% |
| Cc1cc(N2CCCC2)nc(NCc2cc(Nc3ccnc4cc(Cl)ccc34)ccc2F)n1 | 89 nM |  | 74.9 nM |  |  |  |
| N#Cc1cc(Nc2ccnc3cc(Cl)ccc23)ccc1F | > 3360 nM |  | 3200 nM |  |  |  |
| Cc1cc(NCc2cc(Nc3ccnc4cc(Cl)ccc34)ccc2F)nc(Cl)n1 | 183 nM |  | 214 nM |  |  |  |
| Cc1cc(N2CCCCCC2)nc(NCc2cc(Nc3ccnc4cc(Cl)ccc34)ccc2F)n1 | 148 nM |  | 67.5 nM |  |  |  |
| NCc1cc(Nc2ccnc3cc(Cl)ccc23)ccc1F | 46.1 nM | 680 | 58.7 nM | 533 | 31300 nM |  |
| Cc1cc(N2CCOCC2)nc(NCc2cc(Nc3ccnc4cc(Cl)ccc34)ccc2F)n1 | 12.1 nM | 380 | 17.9 nM | 256 | 4590 nM |  |
| Cc1cc(Cl)nc(NCc2cc(Nc3ccnc4cc(Cl)ccc34)ccc2F)n1 | 231 nM |  | 297 nM |  |  |  |
| Cc1cc(N2CCCCC2)nc(NCc2cc(Nc3ccnc4cc(Cl)ccc34)ccc2F)n1 | 13.4 nM | 237 | 4.69 nM | 680 | 3180 nM | MST (Plasmodium berghei [17]): 28 days; Activity (Plasmodium berghei [18]): 100%; Ratio IC50 (Plasmodium falciparum [19]): 2.8; Activity (Plasmodium berghei [20]): Active; Activity (Plasmodium berghei [21]): Active; Activity (Plasmodium berghei [22]): inactive; Ratio IC50 (Plasmodium falciparum [23]): 47.3; Activity (Plasmodium berghei [24]): 100%; Activity (Plasmodium berghei [25]): 100%; Activity (Plasmodium berghei [26]): Active; Activity (Plasmodium berghei [27]): 100%; MST (Plasmodium berghei [28]): 28 days |
| Cc1cc(NCc2cc(Nc3ccnc4cc(Cl)ccc34)ccc2F)nc(N2CCN(C)CC2)n1 | 12.5 nM |  | 5.24 nM |  |  | Activity (mole fraction) (Heme [29]): 0.5; MST (Plasmodium berghei [17]): 19.8 days; Activity (Plasmodium berghei [18]): 100%; Activity (Heme [30]): Active; Activity (Heme [31]): Active; half-life [11]: 16.7 min; Activity (mole fraction) (Heme [32]): 0.5; microsomal CLint [13]: 82.8 µL/min/mg; Activity (Plasmodium berghei [22]): inactive; Activity (Plasmodium berghei [24]): 100%; Activity (Plasmodium berghei [25]): 92.9%; Activity (Plasmodium berghei [26]): Active; Activity (Plasmodium berghei [27]): 91.9%; MST (Plasmodium berghei [28]): 28 days |
